Results reported in ChEMBL document CHEMBL3271967, “Evidence for separate peptide sequences related to the lipolytic and magnesium-accumulating activities of ACTH. Analogy with adrenergic receptors” (J Med Chem, 1977).
Calls of active or inactive are those of the source. The calls are words filed in the database; no cut-off is given here. Residues, ends and D or L forms follow the SMILES beside them.

What was measured:
Lipid bilayer = test: Lipolytic activity in isolated rat adipocytes assessed as fatty acid release at 0.5 to 100 nmol/ml
Rattus norvegicus [1] = species on record: Rattus norvegicus; test: Induction of magnesium accumulation in rat adipocyte plasma membrane vesicles assessed as increase of magnesium level per gram of protein per 30 mins at 5 x 10^-8 M by fluorescence assay; type: functional, cell membranes
Rattus norvegicus [2] = species on record: Rattus norvegicus; test: Induction of magnesium accumulation in rat adipocyte plasma membrane vesicles assessed as increase of intravesicular magnesium level per 30 mins at 5 x 10^-8 M by fluorescence assay; type: functional, cell membranes
Rattus norvegicus [3] = species on record: Rattus norvegicus; test: Induction of magnesium accumulation in rat adipocyte plasma membrane vesicles assessed as increase of intravesicular magnesium level per 30 mins at 1 x 10^-5 M by fluorescence assay; type: functional, cell membranes
Rattus norvegicus [4] = species on record: Rattus norvegicus; test: Induction of magnesium accumulation in rat adipocyte plasma membrane vesicles assessed as increase of magnesium level per gram of protein per 30 mins at 1 x 10^-5 M by fluorescence assay; type: functional, cell membranes
Rattus norvegicus [5] = species on record: Rattus norvegicus; test: Induction of magnesium accumulation in rat adipocyte plasma membrane vesicles assessed as increase of magnesium level per gram of protein per 30 mins at 2 x 10^-4 M by fluorescence assay; type: functional, cell membranes
Rattus norvegicus [6] = species on record: Rattus norvegicus; test: Induction of magnesium accumulation in rat adipocyte plasma membrane vesicles assessed as increase of intravesicular magnesium level per 30 mins at 2 x 10^-4 M by fluorescence assay; type: functional, cell membranes
Rattus norvegicus [7] = species on record: Rattus norvegicus; test: Induction of magnesium accumulation in rat adipocyte plasma membrane vesicles assessed as increase of intravesicular magnesium level per 30 mins at 1 x 10^-5 M by fluorescence assay in presence of beta-adrenergic antagonist propranolol; type: functional, cell membranes
Rattus norvegicus [8] = species on record: Rattus norvegicus; test: Induction of magnesium accumulation in rat adipocyte plasma membrane vesicles assessed as increase of magnesium level per gram of protein per 30 mins at 1 x 10^-5 M by fluorescence assay in presence of beta-adrenergic antagonist propranolol; type: functional, cell membranes
Rattus norvegicus [9] = species on record: Rattus norvegicus; test: Induction of magnesium accumulation in rat adipocyte plasma membrane vesicles assessed as increase of intravesicular magnesium level per 30 mins at 1 x 10^-5 M by fluorescence assay in presence of alpha-adrenergic antagonist phentolamine; type: functional, cell membranes
Rattus norvegicus [10] = species on record: Rattus norvegicus; test: Induction of magnesium accumulation in rat adipocyte plasma membrane vesicles assessed as increase of magnesium level per gram of protein per 30 mins at 1 x 10^-5 M by fluorescence assay in presence of alpha-adrenergic antagonist phentolamine; type: functional, cell membranes

Row | Structure (SMILES) | Activity (Lipid bilayer) | Activity (Rattus norvegicus [1]) [µmol] | Activity (Rattus norvegicus [2]) [mM] | Activity (Rattus norvegicus [3]) [mM] | Activity (Rattus norvegicus [4]) [µmol] | other results
1 | CSCC[C@H](NC(=O)[C@H](CO)NC(=O)[C@H](Cc1ccc(O)cc1)NC(=O)[C@@H](N)CO)C(=O)N[C@@H](CCC(=O)O)C(=O)N[C@@H](Cc1cnc[nH]1)C(=O)N[C@@H](Cc1ccccc1)C(=O)N[C@@H](CCCNC(=N)N)C(=O)N[C@@H](Cc1c[nH]c2ccccc12)C(=O)NCC(=O)N[C@@H](CCCCN)C(=O)N1CCC[C@H]1C(=O)N[C@H](C(=O)NCC(=O)N[C@@H](CCCCN)C(=O)N[C@@H](CCCCN)C(=O)N[C@@H](CCCNC(=N)N)C(=O)N[C@@H](CCCNC(=N)N)C(=O)N1CCC[C@H]1C(=O)N[C@H](C(=O)O)C(C)C)C(C)C (H-SYSMEHFRWGKPVGKKRRPV-OH) | Active | 3.74 | 0.36 | – | – | –
2 | CC(C)NCC(O)c1ccc(O)c(O)c1 (stereo not drawn) | – | – | – | 0.3 | 3.12 | –
3 | CC(C)[C@H](NC(=O)[C@H](CCCCN)NC(=O)[C@@H](NC(=O)[C@@H]1CCCN1C(=O)[C@H](CCCNC(=N)N)NC(=O)[C@H](CCCNC(=N)N)NC(=O)[C@H](CCCCN)NC(=O)[C@H](CCCCN)NC(=O)CNC(=O)[C@@H](NC(=O)[C@@H]1CCCN1C(=O)[C@@H](N)CCCCN)C(C)C)C(C)C)C(=O)N[C@@H](Cc1ccc(O)cc1)C(=O)N1CCC[C@H]1C(=O)O (H-KPVGKKRRPVKVYP-OH) | inactive | 8.32 | 0.8 | – | – | –
4 | CSCC[C@H](NC(=O)[C@H](CO)NC(=O)[C@H](Cc1ccc(O)cc1)NC(=O)[C@@H](N)CO)C(=O)N[C@@H](CCC(=O)O)C(=O)N[C@@H](Cc1cnc[nH]1)C(=O)N[C@@H](Cc1ccccc1)C(=O)N[C@@H](CCCNC(=N)N)C(=O)N[C@@H](Cc1c[nH]c2ccccc12)C(=O)NCC(=O)N[C@@H](CCCCN)C(=O)N1CCC[C@H]1C(=O)N[C@H](C(=O)NCC(=O)N[C@@H](CCCCN)C(=O)N[C@@H](CCCCN)C(=O)N[C@@H](CCCNC(=N)N)C(=O)N[C@@H](CCCNC(=N)N)C(=O)N1CCC[C@H]1C(=O)N[C@H](C(=O)N[C@@H](CCCCN)C(=O)N[C@H](C(=O)N[C@@H](Cc1ccc(O)cc1)C(=O)N1CCC[C@H]1C(=O)N[C@@H](CC(N)=O)C(=O)NCC(=O)N[C@@H](C)C(=O)N[C@@H](CCC(=O)O)C(=O)N[C@@H](CC(=O)O)C(=O)N[C@@H](CCC(=O)O)C(=O)N[C@@H](CC(C)C)C(=O)N[C@@H](C)C(=O)N[C@@H](CCC(=O)O)C(=O)N[C@@H](C)C(=O)N[C@@H](Cc1ccccc1)C(=O)N1CCC[C@H]1C(=O)N[C@@H](CC(C)C)C(=O)N[C@@H](CCC(=O)O)C(=O)N[C@@H](Cc1ccccc1)C(=O)O)C(C)C)C(C)C)C(C)C (H-SYSMEHFRWGKPVGKKRRPVKVYPNGAEDELAEAFPLEF-OH) | – | 9.78 | 0.94 | – | – | –
5 | COc1ccc(OC)c(C(O)C(C)N)c1 (stereo not drawn) | – | – | – | – | – | Activity (Rattus norvegicus [5]): 11.1 µmol; Activity (Rattus norvegicus [6]): 1.07 mM
6 | NC[C@H](O)c1ccc(O)c(O)c1 | – | – | – | 1.3 | 13.5 | Activity (Rattus norvegicus [7]): 0.85 mM; Activity (Rattus norvegicus [8]): 8.84 µmol; Activity (Rattus norvegicus [9]): 0.37 mM; Activity (Rattus norvegicus [10]): 3.85 µmol
